Experimental data taken from article PMC6934184, “Selective DNA-PKcs inhibition extends the therapeutic index of localized radiotherapy and chemotherapy” (The Journal of Clinical Investigation, 2019).

Molecular target: T1, LATS2 (Homo sapiens, UniProt Q9NRM7)
T1 construct: purchased Thermo Fisher Scientific (Life Technologies) SelectScreen
Assay: SelectScreen LanthaScreen
Assay type: binding
Conditions: 1 µM
In short: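 Percent values come from Thermo SelectScreen profiling of NU5455, combining activity and binding assays. CSF1R was run in Z'LYTE format at Km app ATP, and CAMK1 in Adapta format with ATP listed at 10.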

T1 sequence (Q9NRM7 whole entry): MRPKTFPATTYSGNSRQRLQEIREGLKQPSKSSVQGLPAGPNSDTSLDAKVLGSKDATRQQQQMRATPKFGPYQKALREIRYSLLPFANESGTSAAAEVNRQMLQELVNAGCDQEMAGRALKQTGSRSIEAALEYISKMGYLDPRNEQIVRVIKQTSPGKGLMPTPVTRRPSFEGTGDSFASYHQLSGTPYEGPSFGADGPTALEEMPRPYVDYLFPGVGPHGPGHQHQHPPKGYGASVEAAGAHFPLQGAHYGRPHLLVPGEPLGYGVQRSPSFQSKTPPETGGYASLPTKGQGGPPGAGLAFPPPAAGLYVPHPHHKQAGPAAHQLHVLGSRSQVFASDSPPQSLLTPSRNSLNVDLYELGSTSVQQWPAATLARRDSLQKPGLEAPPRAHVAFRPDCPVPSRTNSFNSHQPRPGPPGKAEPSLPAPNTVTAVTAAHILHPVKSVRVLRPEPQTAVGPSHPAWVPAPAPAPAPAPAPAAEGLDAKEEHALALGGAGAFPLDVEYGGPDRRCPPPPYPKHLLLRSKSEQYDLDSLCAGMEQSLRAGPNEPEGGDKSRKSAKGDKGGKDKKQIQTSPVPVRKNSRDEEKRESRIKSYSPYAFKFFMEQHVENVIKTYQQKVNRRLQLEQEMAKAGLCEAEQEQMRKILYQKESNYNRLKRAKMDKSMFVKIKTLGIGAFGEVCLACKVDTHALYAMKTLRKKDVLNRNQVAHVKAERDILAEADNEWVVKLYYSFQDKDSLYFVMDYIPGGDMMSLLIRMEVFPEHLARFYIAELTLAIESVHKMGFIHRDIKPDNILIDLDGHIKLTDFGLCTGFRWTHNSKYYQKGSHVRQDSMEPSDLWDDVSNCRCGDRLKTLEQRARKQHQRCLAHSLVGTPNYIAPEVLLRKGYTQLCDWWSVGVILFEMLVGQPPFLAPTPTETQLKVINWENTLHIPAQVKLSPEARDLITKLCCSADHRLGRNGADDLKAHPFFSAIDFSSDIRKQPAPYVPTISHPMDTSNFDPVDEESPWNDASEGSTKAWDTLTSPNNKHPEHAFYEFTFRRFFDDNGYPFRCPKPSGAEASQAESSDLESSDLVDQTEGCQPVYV

## CN(C(=O)CN1CCOCC1)c1ccc2sc3c(-c4cccc5c(=O)cc(N6CC7CCC(C6)O7)oc45)cccc3c2c1 [NU5455]
  % displacement: 4.7%
